Measurements from US20040224969A1, “Salts of substituted 1,2,3,4-tetrahydroquinoline-2-carboxylic acid compounds” (Gruenenthal GmbH, priority 2001, published 2004).

Tests used:
[1] = target: T1, glycine binding site of the NMDA receptor channel (Rattus norvegicus, UniProt P35439); test: Receptor binding (glycine binding site of the NMDA receptor channel), (3H)-MDL 105.519 displacement on brain membrane homogenates; settings: for Displacement (%, 10 μmol/l): displacement of (3H)-MDL 105.519 at 10 μmol/l of substance; for Ki: rat cortex/hippocampus membranes, 1 nmol/l (3H)-MDL 105.519, mean of 3 independent experiments
T1 construct: from tissue; host or cells: rat brain cortex and hippocampus membrane homogenate (male Wistar rats)
Method: Receptor binding (glycine binding site of the NMDA receptor channel)
The tests for determining the affinity of the compounds of formula I according to the invention for the glycine binding site of the NMDA receptor channel were carried out on brain membrane homogenates (homogenate of the cortex and hippocampus areas of the brain of male rats, Wistar strain) [B. M. Baron, B. W. Siegel, B. L. Harrison, R. S. Gross, C. Hawes and P. Towers, Journal Of Pharmacology and Experimental Therapeutics, vol. 279, p. 62, 1996].
For this purpose, the cortex and hippocampus were freed without cutting from freshly removed rat brains, homogenized in 5 mmol/l TRIS acetate buffer, 0.32 mol/l sucrose, pH 7.4 (10 ml/g of fresh weight), using a Potter homogenizer (Braun/Melsungen, 10 piston strokes at 500 rpm), with ice cooling, and then centrifuged for 10 minutes at 1000 g and 4° C. The first supernatant was collected and the sediment was homogenized again with 5 mmol/l TRIS acetate buffer, 0.32 mol/l sucrose, pH 7.4 (5 ml/g of original fresh weight), using the Potter homogenizer (10 piston strokes at 500 rpm), with ice cooling, and centrifuged for 10 minutes at 1000 g and 4° C. The resulting supernatant was combined with the supernatant from the first centrifugation and centrifuged at 17,000 g for 20 minutes at 4° C. The supernatant after this centrifugation was discarded and the membrane sediment was taken up with 5 mmol/l TRIS acetate buffer, pH 8.0 (20 ml/g of original fresh weight), and homogenized with 10 piston strokes at 500 rpm.
The membrane homogenate was then incubated for 1 hour at 4° C. and centrifuged for 30 minutes at 50,000 g and 4° C. The supernatant was discarded and the centrifuge tube containing the membrane sediment was sealed with Parafilm and frozen for 24 hours at −20° C. On the following day the membrane sediment was thawed, taken up with ice-cold 5 mmol/l TRIS acetate buffer, 0.1% saponin (w/v), pH 7.0 (10 ml/g of original fresh weight), homogenized with 10 piston strokes at 500 rpm and then centrifuged for 20 minutes at 50,000 g and 4° C. The resulting supernatant was discarded and the sediment was taken up in a small volume with 5 mmol/l TRIS acetate buffer, pH 7.0 (approximately 2 ml/g of original fresh weight), and homogenized again with 10 piston strokes at 500 rpm. After determination of the protein content, the membrane homogenate was adjusted to a protein concentration of 10 mg protein/ml with 5 mmol/l TRIS acetate buffer, pH 7.0, and frozen in aliquots until tested.
For the receptor binding test, aliquots were thawed, diluted to 1:10 with 5 mmol/l TRIS acetate buffer, pH 7.0, homogenized with 10 piston strokes at 500 rpm using the Potter homogenizer (10 piston strokes at 500 rpm), with ice cooling, and centrifuged for 60 minutes at 55,000 g and 4° C. […]
In the binding test, 50 mmol/l TRIS acetate buffer, pH 7.0, was used as the buffer and 1 nmol/l (^3H)-MDL 105.519 (B. M. Baron et al., 1996) was used as the radioactive ligand. The proportion of non-specific binding was determined in the presence of 1 mmol/l glycine.
In other preparations the compounds according to the invention were added in concentration series and the displacement of the radioactive ligand from its specific binding to the glycine binding site of the NMDA receptor channel was measured. […]

[2] = system: formalin-induced nociception; test: Formalin test on the rat (second phase); format: in vivo; settings: late phase
Method: The experiments for determining the antinociceptive action of the compounds of formula I according to the invention were performed in the formalin test on male rats (Sprague-Dawley, 150-170 g).
In the formalin test a distinction is made between the first (early) phase (0-15 min after the formalin injection) and the second (late) phase (15-60 min after the formalin injection) (D. Dubuisson, S. G. Dennis, Pain, 4, 161-174 (1977)). The early phase represents a model for acute pain as a direct reaction to the formalin injection, while the late phase is regarded as a model for persistent (chronic) pain (T. J. Coderre, J. Katz, A. L. Vaccarino, R. Melzack, Pain, vol. 52, p. 259, 1993). […]
A single subcutaneous formalin injection (50 μl, 5%) in the dorsal side of the right back paw of free-moving experimental animals induced a nociceptive reaction which is represented by the following behavioral parameters: lifting and holding of the affected paw (score 1), shaking or twitching (score 2), licking and biting (score 3). The differing modes of behavior triggered by the formalin injection were recorded continuously by observing the animals in the late phase of the formalin test, and differently weighted in an evaluation. Normal behavior, where the animal distributes its weight evenly over all four paws, was recorded as a score of 0. […]

AMPA receptor channels = test: AMPA-induced ionic fluxes on RNA-injected Xenopus oocytes (two-electrode voltage clamp); format: cell-based, rat; settings: 10 μmol/l compound, AMPA 100 μmol/l, n = 2

SMILES | Displacement (%, 10 μmol/l) [1] [%] | Ki [1] [nM] | % inhibition of the formalin-induced nociception ([2]; i.v., 68.1 mg/kg) [%] | % inhibition of the formalin-induced nociception ([2]; i.p., 21.5 mg/kg) [%] | AMPA-induced ionic fluxes Inhibition at 10 μmol/l of the compounds according to the invention (AMPA receptor channels)
O=C([O-])C1Nc2cc(Cl)cc(Cl)c2C2C=CCC12.[Na+] (centres unmarked) [Example 55, 7,9-Dichloro-3a,4,5,9b-tetrahydro-3H-cyclopenta [c]quinoline-4-carboxylate; sodium salt] | 90 | 350 | 56 |  | 
O=C([O-])C1Nc2cc(Cl)cc(Cl)c2C2CCCC12.[Na+] (centres unmarked) [Example 54, 7,9-Dichloro-2,3,3a,4,5,9b-hexahydro-1H-cyclopenta [c]quinoline-4-carboxylate; sodium salt] | 97 |  |  |  | 
O=C(O)C1Nc2ccc(Cl)cc2C2C=CCC12 (centres unmarked) [Example 2, 8-Chloro-3a,4,5,9b-tetrahydro-3H-cyclopenta [c]quinoline-4-carboxylic acid] | 100 | 300 |  |  | 
O=C(O)C1Nc2cc(Cl)cc(Cl)c2C2C=CCC12 (centres unmarked) [Example 1, 7,9-Dichloro-3a,4,5,9b-tetrahydro-3H-cyclopenta [c]quinoline-4-carboxylic acid] |  |  |  | 64.5 | 5.4% (n = 2)
